Source: ChEMBL document CHEMBL1201862, “PubChem BioAssay data set” (2004)
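Tested at 5 concentrations; 48 h exposure; 96-well plates; endpoints linearly interpolated, else capped at highest concentration. Here, GI50 denotes the concentration required for 50% inhibition of growth.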 Active and inactive are the calls of the source. Rule as the data show it: active = GI50 up to about 1.1 µM and inactive = higher.

Key:
Test in all cases: NCI tumour cell line growth inhibition, 48 h
[1] = system: 786-0
[2] = system: SR
[3] = system: SK-OV-3
[4] = system: MDA-MB-435
[5] = system: SNB-19
[6] = system: Hs-578T
[7] = system: EKVX
[8] = system: A549
[9] = system: Malme-3M
[10] = system: OVCAR-5
[11] = system: NCI-H522
[12] = system: M14
[13] = system: HT-29
[14] = system: KM12
[15] = system: UACC-257
[16] = system: HCT-15
[17] = system: SK-MEL-5
[18] = system: TK-10
[19] = system: CAKI-1
[20] = system: A498

SMILES | GI50 [1] | GI50 [2] | GI50 [3] | GI50 [4] | GI50 [5] | GI50 [6] | GI50 [7] | GI50 [8] | GI50 [9] | GI50 [10] | GI50 [11] | GI50 [12] | GI50 [13] | GI50 [14] | GI50 [15] | GI50 [16] [nM] | GI50 [17] | GI50 [18] | GI50 [19] | GI50 [20]
c1ccc(COc2nc3cc(C45CC6CC(CC(C6)C4)C5)ccc3[nH]2)cc1 | 14.9 µM (inactive) | > 100 µM (inactive) | 29.8 µM (inactive) | 8.95 µM (inactive) | 24.8 µM (inactive) | 23 µM (inactive) | 13.5 µM (inactive) | 16.5 µM (inactive) | 9.16 µM (inactive) | 41 µM (inactive) | 3.42 µM (inactive) | 17.2 µM (inactive) | 3.53 µM (inactive) | 15.5 µM (inactive) | 2.92 µM (inactive) | 3720 | 5.53 µM (inactive) | 4.65 µM (inactive) | 39.7 µM (inactive) | 23.3 µM (inactive)
C/C(=C\c1csc(C)n1)[C@@H]1C[C@@H]2O[C@@H]2CCC[C@H](C)[C@H](O)[C@@H](C)C(=O)C(C)(C)[C@@H](O)CC(=O)O1.C/C(=C\c1csc(C)n1)[C@@H]1C[C@@H]2O[C@]2(C)CCC[C@H](C)[C@H](O)[C@@H](C)C(=O)C(C)(C)[C@@H](O)CC(=O)O1 | 0.005 µM (active) | 0.00397 µM (active) | 0.00971 µM (active) | 0.000973 µM (active) | 0.0191 µM (active) | 0.00378 µM (active) | 0.0252 µM (active) | 0.0039 µM (active) | 0.129 µM (active) | 0.108 µM (active) | 0.00076 µM (active) | 0.00266 µM (active) | 0.00107 µM (active) | 0.00265 µM (active) | 0.145 µM (active) | 2.18 | 0.00408 µM (active) | 0.0439 µM (active) | 0.0101 µM (active) | 0.0105 µM (active)
Cc1cccc(NC(=O)CCl)c1 | 3.67 µM (inactive) | 9.93 µM (inactive) | > 10 µM (inactive) | 9.02 µM (inactive) | > 10 µM (inactive) | > 10 µM (inactive) | > 10 µM (inactive) | > 10 µM (inactive) | 3.93 µM (inactive) | > 10 µM (inactive) | 1.95 µM (inactive) | 8.77 µM (inactive) | 7.87 µM (inactive) | > 10 µM (inactive) | > 10 µM (inactive) | > 10000 | 7.71 µM (inactive) | > 10 µM (inactive) | > 10 µM (inactive) | > 10 µM (inactive)
CC(=O)OCC(=O)[C@@]12OC(C)(C)O[C@@H]1C[C@H]1[C@@H]3CC=C4C[C@@H](O)CC[C@]4(C)[C@H]3CC[C@@]12C | 41.4 µM (inactive) | > 100 µM (inactive) | 38.3 µM (inactive) | > 100 µM (inactive) | 39.9 µM (inactive) | 22.4 µM (inactive) | 29.6 µM (inactive) | > 100 µM (inactive) | > 100 µM (inactive) | > 100 µM (inactive) | 57.9 µM (inactive) | > 100 µM (inactive) | > 100 µM (inactive) | > 100 µM (inactive) | > 100 µM (inactive) | > 100000 | > 100 µM (inactive) | 40.3 µM (inactive) | > 100 µM (inactive) | 32.1 µM (inactive)
CC1=C(N2CC2)C(=O)C(C)=C(N2CC2)C1=O | 0.0702 µM (active) | 0.05 µM (active) | 0.31 µM (active) | 0.288 µM (active) | 0.348 µM (active) | 0.933 µM (active) | 0.697 µM (active) | 0.112 µM (active) | 0.204 µM (active) | 0.296 µM (active) | 0.0998 µM (active) | 0.189 µM (active) | 0.175 µM (active) | 0.279 µM (active) | 0.465 µM (active) | 196 | 0.155 µM (active) | 0.289 µM (active) | 0.0991 µM (active) | 0.178 µM (active)
